Test results from the NIST ThermoML archive (doi:10.1016/j.jct.2016.06.012).
Several values for one entry are separate records, joined by “and”; a condition that tells them apart may be missing. Equal values may be shown once. ± gives the expanded uncertainty stated by the source.

Legend:
[1] = xn = mol fraction of the nth substance listed; settings: 100 kPa, Liquid, x2 = 0; for viscosity: Capillary tube (Ostwald / Ubbelohde) method; for mass density: Vibrating tube method
[2] = 293.15 K; 100 kPa; Liquid; Capillary tube (Ostwald / Ubbelohde) method
[3] = 293.15 K; 100 kPa; Liquid; Vibrating tube method
[4] = 298.15 K; 100 kPa; Liquid; Capillary tube (Ostwald / Ubbelohde) method
[5] = 298.15 K; 100 kPa; Liquid; Vibrating tube method
[6] = 303.15 K; 100 kPa; Liquid; Capillary tube (Ostwald / Ubbelohde) method
[7] = 303.15 K; 100 kPa; Liquid; Vibrating tube method
[8] = 308.15 K; 100 kPa; Liquid; Capillary tube (Ostwald / Ubbelohde) method
[9] = 308.15 K; 100 kPa; Liquid; Vibrating tube method
[10] = 313.15 K; 100 kPa; Liquid; Capillary tube (Ostwald / Ubbelohde) method
[11] = 313.15 K; 100 kPa; Liquid; Vibrating tube method
[12] = 318.15 K; 100 kPa; Liquid; Capillary tube (Ostwald / Ubbelohde) method
[13] = 318.15 K; 100 kPa; Liquid; Vibrating tube method
[14] = 323.15 K; 100 kPa; Liquid; Capillary tube (Ostwald / Ubbelohde) method
[15] = 323.15 K; 100 kPa; Liquid; Vibrating tube method

SMILES | viscosity ([1]; 293.15 K) [mPa·s] | mass density ([1]; 293.15 K) [kg/m3] | viscosity ([1]; 298.15 K) [mPa·s] | mass density ([1]; 298.15 K) [kg/m3] | viscosity ([1]; 303.15 K) [mPa·s] | mass density ([1]; 303.15 K) [kg/m3] | viscosity ([1]; 308.15 K) [mPa·s] | mass density ([1]; 308.15 K) [kg/m3] | viscosity ([1]; 313.15 K) [mPa·s] | mass density ([1]; 313.15 K) [kg/m3] | viscosity ([1]; 318.15 K) [mPa·s] | mass density ([1]; 318.15 K) [kg/m3] | viscosity ([1]; 323.15 K) [mPa·s] | mass density ([1]; 323.15 K) [kg/m3] | viscosity [2] [mPa·s] | mass density [3] [kg/m3] | viscosity [4] [mPa·s] | mass density [5] [kg/m3] | viscosity [6] | mass density [7] [kg/m3] | also measured
CCn1cc[n+](C)c1C.O=S(=O)([N-]S(=O)(=O)C(F)(F)F)C(F)(F)F |  |  |  |  |  |  |  |  |  |  |  |  |  |  |  |  |  |  |  |  | viscosity (293.15 K; 100 kPa; Metastable liquid; Capillary tube (Ostwald / Ubbelohde) method): 89.27 ± 2 mPa·s; mass density (293.15 K; 100 kPa; Metastable liquid; Vibrating tube method): 1496.32 ± 12 kg/m3; viscosity (298.15 K; 100 kPa; Metastable liquid; Capillary tube (Ostwald / Ubbelohde) method): 70.77 ± 1.5 mPa·s; mass density (298.15 K; 100 kPa; Metastable liquid; Vibrating tube method): 1491.47 ± 12 kg/m3; viscosity (303.15 K; 100 kPa; Capillary tube (Ostwald / Ubbelohde) method; Liquid): 57.02 ± 1.2 mPa·s; mass density (303.15 K; 100 kPa; Vibrating tube method; Liquid): 1486.67 ± 12 kg/m3; viscosity (308.15 K; 100 kPa; Capillary tube (Ostwald / Ubbelohde) method; Liquid): 46.6 ± 0.98 mPa·s; mass density (308.15 K; 100 kPa; Vibrating tube method; Liquid): 1481.87 ± 12 kg/m3; viscosity (313.15 K; 100 kPa; Capillary tube (Ostwald / Ubbelohde) method; Liquid): 38.62 ± 0.81 mPa·s; mass density (313.15 K; 100 kPa; Vibrating tube method; Liquid): 1477.09 ± 12 kg/m3; viscosity (318.15 K; 100 kPa; Capillary tube (Ostwald / Ubbelohde) method; Liquid): 32.33 ± 0.68 mPa·s; mass density (318.15 K; 100 kPa; Vibrating tube method; Liquid): 1472.32 ± 12 kg/m3; viscosity (323.15 K; 100 kPa; Capillary tube (Ostwald / Ubbelohde) method; Liquid): 27.06 ± 0.57 mPa·s; mass density (323.15 K; 100 kPa; Vibrating tube method; Liquid): 1467.56 ± 12 kg/m3
O=C1CCCO1 [γ-butyrolactone] + CCC[n+]1ccn(C)c1C.O=S(=O)([N-]S(=O)(=O)C(F)(F)F)C(F)(F)F | 1.86 ± 0.04 | 1129.49 ± 9 | 1.71 ± 0.04 | 1124.59 ± 9 | 1.58 ± 0.03 | 1119.68 ± 9 | 1.47 ± 0.03 | 1114.78 ± 8.9 | 1.37 ± 0.03 | 1109.87 ± 8.9 | 1.28 ± 0.03 | 1104.96 ± 8.8 | 1.2 ± 0.03 | 1100.05 ± 8.8 |  |  |  |  |  |  | 
CCC[n+]1ccn(C)c1C.O=S(=O)([N-]S(=O)(=O)C(F)(F)F)C(F)(F)F |  |  |  |  |  |  |  |  |  |  |  |  |  |  | 121.7 ± 3 | 1459.14 ± 12 | 92.8 ± 2.1 | 1454.44 ± 12 | 72.1 ± 1.6 mPa·s and 71.1 ± 1.5 mPa·s | 1449.72 ± 12 | viscosity [8]: 57.76 ± 1.2 mPa·s; mass density [9]: 1445 ± 12 kg/m3; viscosity [10]: 46.53 ± 0.98 mPa·s; mass density [11]: 1440.28 ± 12 kg/m3; viscosity [12]: 38.4 ± 0.81 mPa·s; mass density [13]: 1435.57 ± 11 kg/m3; viscosity [14]: 31.89 ± 0.67 mPa·s; mass density [15]: 1430.87 ± 11 kg/m3
CCCCn1cc[n+](C)c1C.O=S(=O)([N-]S(=O)(=O)C(F)(F)F)C(F)(F)F |  |  |  |  |  |  |  |  |  |  |  |  |  |  | 133.59 ± 3.4 | 1423.72 ± 11 | 101.34 ± 2.4 | 1419.13 ± 11 | 77.86 ± 1.7 mPa·s | 1414.52 ± 11 | viscosity [8]: 61.73 ± 1.3 mPa·s; mass density [9]: 1409.91 ± 11 kg/m3; viscosity [10]: 49.77 ± 1 mPa·s; mass density [11]: 1405.31 ± 11 kg/m3; viscosity [12]: 40.7 ± 0.85 mPa·s; mass density [13]: 1400.7 ± 11 kg/m3; viscosity [14]: 33.69 ± 0.71 mPa·s; mass density [15]: 1396.13 ± 11 kg/m3
O=C1CCCO1 [γ-butyrolactone] + CCCCn1cc[n+](C)c1C.O=S(=O)([N-]S(=O)(=O)C(F)(F)F)C(F)(F)F | 1.86 ± 0.04 | 1129.49 ± 9 | 1.71 ± 0.04 | 1124.59 ± 9 | 1.58 ± 0.03 | 1119.68 ± 9 | 1.47 ± 0.03 | 1114.78 ± 8.9 | 1.37 ± 0.03 | 1109.87 ± 8.9 | 1.28 ± 0.03 | 1104.96 ± 8.8 | 1.2 ± 0.03 | 1100.05 ± 8.8 |  |  |  |  |  |  | 
O=C1CCCO1 [γ-butyrolactone] + CCn1cc[n+](C)c1C.O=S(=O)([N-]S(=O)(=O)C(F)(F)F)C(F)(F)F | 1.86 ± 0.04 | 1129.49 ± 9 | 1.71 ± 0.04 | 1124.59 ± 9 | 1.58 ± 0.03 | 1119.68 ± 9 | 1.47 ± 0.03 | 1114.78 ± 8.9 | 1.37 ± 0.03 | 1109.87 ± 8.9 | 1.28 ± 0.03 | 1104.96 ± 8.8 | 1.2 ± 0.03 | 1100.05 ± 8.8 |  |  |  |  |  |  | 
